Assays:
[1] = tested on: Sprague Dawley rats; experiment: Plethysmography of breathing after repetitive (chronic) morphine administrations, with or without cloperastine
Excerpt: A major adverse effect of the chronic use of opioid drugs is respiratory depression causing a […] in the United States. Via μ-Opioid receptors (MOR), respiratory neurons in the brainstem are known to be the targets, especially those in the ventral respiratory column (VRC). However, how the VRC neurons react to chronic opioid drugs remains elusive. To understand how chronic morphine exposures affect brainstem respiratory motor output, we performed these studies in Sprague Dawley rats, using repetitive morphine administrations. […] Since the MOR is coupled to GIRK channels, we applied Cloperastine, a GIRK channel blocker and a commercial OTC drug, to the rats before or after chronic morphine.
Disclosed herein are methods for treating chronic morphine exposures and how this exposure affects brainstem respiratory motor output. Disclosed herein are studies using Sprague Dawley rats, during which repetitive morphine administrations were conducted.

[2] = tested on: rostral ventral respiratory group (rVRG) neurons; experiment: Extracellular recording of firing activity of respiratory neurons in the ventral respiratory group; type: in vivo, Sprague Dawley rats
Method: Firing activity of respiratory neurons was recorded extracellularly in the ventral respiratory group.

[3] = tested on: phrenic discharges; conditions: rat, in vivo
[4] = tested on: phrenic discharges; experiment: Phrenic discharge recording in spontaneously breathing rats after decerebration
[5] = 50 mg/kg morphine followed by 30 mg/kg cloperastine

SMILES | erratic breathing (FIG. 8) ([1]; 30 mg/kg cloperastine injected after 10 mg/kg morphine) | erratic breathing (FIG. 11) ([1]; 30 mg/kg cloperastine injected first, then 10 mg/kg morphine) | effect on chronic morphine-induced central hypoventilation ([1]; cloperastine applied before or after chronic morphine) | time at which a significant change in normalized minute ventilation occurs (FIG. 16) ([1]; cloperastine given at 20 minutes post morphine) | effect on morphine's effects on breathing frequency (FIG. 13) ([1]; cloperastine injection after morphine, normalized time course) | firing activity of rVRG neurons (FIG. 31) [2, 5] | Te and Ti duration (FIG. 24) [3] | Te/Ti ratio (FIG. 25) [3] | breathing frequency (FIG. 26) [3] | phrenic discharge pattern (FIG. 19) [4, 5] | effect on breathing (minute ventilation, variation of amplitude and frequency) ([1]; 10 mg/kg morphine) | breathing depression after repetitive morphine administrations ([1]; chronic morphine, Sprague Dawley rats) | time for the breathing effects to reach a plateau level ([1]; repetitive morphine administrations) | duration of minute ventilation suppression ([1]; same dose morphine following the chronic treatments) | suppression of minute ventilation ([1]; same dose morphine following the chronic treatments, n=16 rats, plethysmography) | variations in tidal volume and breathing frequency ([1]; same dose morphine following the chronic treatments, plethysmography) | E-I phase-spanning neurons in the ventral respiratory group ([2]; chronic morphine versus saline injection) | ectopic phrenic activity during expiration ([4]; after chronic morphine exposures)
Clc1ccc(C(OCCN2CCCCC2)c2ccccc2)cc1 (stereo not drawn) [cloperastine] | reduction in erratic breathing | reduction in erratic breathing | reverses hypoventilation mainly by suppression the irregularity of breathing amplitude and frequency | about 45 minutes | reducing the effects of morphine of breathing frequency | return to near normal firing activity | nearly the same as the control | nearly identical to control | nearly identical to control | erratic phrenic activity has nearly completely subsided |  |  |  |  |  |  |  | 
CN1CC[C@]23c4c5ccc(O)c4O[C@H]2[C@@H](O)C=C[C@H]3[C@H]1C5 [morphine] |  |  |  |  |  |  |  |  |  |  | causes central hypoventilation with decreased breathing minute ventilation, increased variation of both breathing amplitude & frequency | severe breathing depression was found in these rats | 3 to 4 days | 3 to 4 h | 55.2%±4.1 | severe variations in tidal volume and breathing frequency | A large number of E-I phase-spanning neurons were observed | Ectopic phrenic activity during expiration was seen

From US20220211695A1, “MORPHINE-INDUCED RESPIRATORY DEPRESSION: BEHAVIORAL, PHRENIC AND BRAINSTEM RESPIRATORY NEURONAL EVIDENCE” (GEORGIA STATE UNIVERSITY RESEARCH FOUNDATION, INC., priority 2019, published 2022)
